Source: paper PMC6222780, “Synthesis, Spectroscopic Analysis and Assessment of the Biological Activity of New Hydrazine and Hydrazide Derivatives of 3-Formylchromone” (Molecules : A Journal of Synthetic Chemistry and Natural …, 2018)

Tests used:
[1] = test system: Neisseria meningitidis DSM 25942; experiment: Disc diffusion, inhibition of growth zones; type: cell-based; details: N. meningitidis
Experimental: (§1) Fifteen strains of microorganisms from different species were used. The growth inhibition zones were evaluated in two independent experiments (n = 2 in each of them), and the potential inhibitors of microbial growth are presented in Table 3. The hydrazine and hydrazide derivatives of 3-formylchromone constitute a class of potential antimicrobial agents and are worthy of further investigation. […] In case of N. meningitidis (result with *) the action of 9 was noted just for 100 µg/mL and the influence in concentration of 200 µg/mL was not observed.
(§2) The microbial reference strains representing different families of bacteria and fungi, pathogenic for man and animals, were used. The 15 strains were derived from international microbial collections held by the Department of Pharmaceutical Microbiology and Microbiological Diagnostics of the Medical University of Lodz: Candida albicans ATCC 10231, Enterococcus faecalis ATCC 29212, Klebsiella pneumoniae ATCC 700603, Pseudomonas aeruginosa NCTC 6749, Proteus vulgaris CCM 1799, Staphylococcus epidermidis ATCC 12228, Shigella flexneri ATCC 12022, Streptococcus pneumoniae ATCC 49619, Streptococcus pyogenes ATCC 19615, Corynebacterium jeikeium K411, Escherichia coli ATCC 25922, Staphylococcus aureus NCTC 4135, Streptococcus dysgalactiae subsp. equisimilis ATCC 12394, Neisseria meningitidis DSM 25942, Listeria monocytogenes PCM 2191.
(§3) The strains were stored at −80 °C, frozen in a 1:1 mixture of Brain Heart Infusion (BHI) broth and glycerol. The reference strains, depending on the growth requirements, were grown on a solid medium—nutrient agar, nutrient agar with 5% addition of lambs defibrinated blood or (in the case of Corynebacterium jeikeium) Triptic Soy Agar (TSA) with the addition of sheep blood, yeast extract and Tween-80. The susceptibility of the strains to chemical compounds was measured analogously to the adopted method of diffusion and disc preparation of antibiotics for compounds introduced into treatment. After receiving the pure culture of the reference strain, obtained from frozen samples and grown on the appropriate medium for growth requirements, suspensions of the tested strains were prepared in a physiological NaCl solution with a density of 0.5 on the McFarland scale. These suspensions were seeded with a cotton ball over the entire surface of the test medium. Discs impregnated with the test compound at a concentration of 100 or 200 µg/mL were then placed on it and incubated for 24 h at 37 °C.

[2] = test system: L929 cell line (mouse fibroblast cell line); experiment: XTT assay, cell proliferation study; type: cell-based; details: for IC50 / The Range of Influence [%, Control = 100%] / Stimulating effect on proliferation: L929, XTT; for IC50: 24 h incubation, 0.01–1250 µmol/L; for The Range of Influence [%, Control = 100%]: viability over 0.01–1250 µmol/L
Experimental: (§4) Four independent experiments (n = 4 for each used concentration) were performed. […] This indicates good or very good (in the case of 1, 3, 5, 8, 11) selectivity of action. […] Due to the dual action of these compounds, it would be advisable to study their effect on stimulation of proliferation at concentrations below 0.01 μmol/L. This dual action may be desirable during therapy, because the dosage may affect the nature of the compounds.
The mouse fibroblast cell line L929 (Sigma-Aldrich) was grown in MEM (Minimum Essential Medium) (Biowest, Nuaillé, France) containing 10% of Fetal Bovine Serum (Biowest), 1 mmol/L sodium pyruvate (Biological Industries, Cromwell, CT, USA), 0.5 mmol/L non-essential amino acids (Sigma-Aldrich) and 100 units/mL penicillin with […] streptomycin (Biological Industries) in an incubator at 37 °C with 5% CO2. Cells were plated and grown to 80% confluence before the initiation of the assay.
(§5) The XTT assay was used to evaluate cell metabolic activity. […] The number of viable cells is correlated with the colour intensity determined by photometric measurements. XTT (Serva, Heidelberg, Germany) was dissolved in MEM without phenol red (PAN-Biotech, Aidenbach, Germany) or DMEM without phenol red (PAN-Biotech) at a concentration of 1 mg/mL. Phenazine metosulphate (PMS) (Serva) was dissolved in phosphate-buffered saline (PBS, 5 mmol/L). PMS solution was then added to the XTT solution at a concentration of 25 μM. Investigated compounds were dissolved in dimethyl sulfoxide (DMSO) to obtain stock solutions.
(§6) L929 and EA.hy926 cells were seeded into 96-well plates at a density of 1 × 10^4 cells per well. They were cultured for 24 h in the incubator (37 °C and 5% CO2). After that time, the medium was removed. Then the 100 µL of medium containing investigated compounds (in the range of concentration 0.01–1250 µmol/L) or only culture medium (blank control) were added. Cisplatin was used as a reference compound. Cells were further incubated for 24 h. At the third day, the old medium were removed and cells were washed with PBS. 100 µL of culture medium with the additional 50 µL of the XTT/PMS solution were added to each well. Plates were incubated in the dark for 3 h at 37 °C. Then, the plates were swayed and an aliquot of 100 µL from each well was transferred into the corresponding well of a new plate. Finally, the absorbance was measured by using the microplate reader (Synergy H1, BioTek, Winooski, VT, USA) at a wavelength of 450 nm. The cell viability was expressed as a percentage of the control values (blanks).

[3] = test system: EA.hy926 cell line (the human umbilical vein, somatic cell hybrid); experiment: XTT assay, cell proliferation study; type: cell-based; details: for IC50 / The Range of Influence [%, Control = 100%] / Stimulating effect on proliferation: EA.hy926, XTT; for IC50: 24 h incubation, 0.01–1250 µmol/L; for The Range of Influence [%, Control = 100%]: viability over 0.01–1250 µmol/L; for Selectivity of action (IC50 EA.hy926 versus L929): IC50 lower for EA.hy926 than for L929
Experimental: as §4
The EA.hy926 cell line (the human umbilical vein, somatic cell hybrid, American Type Culture Collection, Manassas, VA, USA) was used to evaluate the cytotoxicity of novel compounds. Cells were grown in Dulbecco’s Modified Eagle’s Medium (DMEM) which contains 10% of Fetal Bovine Serum (Biowest), 2 mmol/L glutamine (Sigma-Aldrich) and 100 units/mL penicillin with […] streptomycin (Biological Industries). Cells were plated and grown in an incubator at 37 °C with 5% CO2 to 80% confluence before the initiation of the assay.
as §5, §6

[4] = test system: Fifteen strains of microorganisms from different species; experiment: Initial antimicrobial screening by disc diffusion on the whole panel; type: cell-based; details: 15 strains, discs at 100 or 200 µg/mL
Experimental: as §1, §2, §3

[5] = test system: Streptococcus pneumoniae ATCC 49619; experiment: Disc diffusion, inhibition of growth zones; type: cell-based; details: S. pneumoniae; discs at 100 or 200 µg/mL, 24 h at 37 °C
Experimental: as §1, §2, §3

[6] = test system: Staphylococcus epidermidis ATCC 12228; experiment: Disc diffusion, inhibition of growth zones; type: cell-based; details: S. epidermidis; discs at 100 or 200 µg/mL, 24 h at 37 °C
Experimental: as §1, §2, §3

[7] = test system: Staphylococcus aureus NCTC 4135; experiment: Disc diffusion, inhibition of growth zones; type: cell-based; details: S. aureus; discs at 100 or 200 µg/mL, 24 h at 37 °C
Experimental: as §1, §2, §3

[8] = test system: Streptococcus pyogenes ATCC 19615; experiment: Disc diffusion, inhibition of growth zones; type: cell-based; details: S. pyogenes; discs at 100 or 200 µg/mL, 24 h at 37 °C
Experimental: as §1, §2, §3

Molecule	Influence on growth at 200 µg/mL ([1]; disc at 200 µg/mL)	Inhibition of growth zones (lowest effective studied concentration) ([1]; discs at 100 or 200 µg/mL, 24 h at 37 °C) [µg/mL]	IC50 [2] [µM]	The Range of Influence [%, Control = 100%] [2]	IC50 [3] [µM]	The Range of Influence [%, Control = 100%] [3]	Inhibition of microbial growth (result in words) [4]	IC50 ([2]; Mus musculus) [µM]	Selectivity of action (IC50 EA.hy926 versus L929) [3]	melting point [°C]	Inhibition of growth zones (lowest effective studied concentration) [5] [µg/mL]	Stimulating effect on proliferation [2]	Stimulating effect on proliferation [3]	Inhibition of growth zones (lowest effective studied concentration) [6] [µg/mL]	Inhibition of growth zones (lowest effective studied concentration) [7] [µg/mL]	Inhibition of growth zones (lowest effective studied concentration) [8] [µg/mL]	IC50 value lower than ligand 5 ([2]; L929, complex 11 compared with ligand 5) [%]	IC50 value lower than ligand 5 ([3]; EA.hy926, complex 11 compared with ligand 5) [%]
O=c1c(C=NNc2c(F)c(F)c(F)c(F)c2F)coc2ccccc12 [Compound 9, 3-(Pentafluorophenyl-hydrazonomethyl)-chromen-4-one]	not observed	100	386	13.92–85.11%	253	13.15–69.88%	exhibit antimicrobial potential											
O=C(N/N=C/c1coc2ccccc2c1=O)c1ccc(F)cc1 [Compound 5, 4-Fluorobenzoic acid [1-(4-oxo-4H-chromen-3-yl)-meth-(E)-ylidene]-hydrazide]				16.03–56.35%		11.81–60.64%	not able to inhibit microbial growth	65.9	very good	201 to 202								
O=c1c(C=NNc2cc(F)ccc2F)coc2ccccc12 [Compound 1, 3-[(2,5-Difluorophenyl)-hydrazonomethyl]-chromen-4-one]			209	27.64–101.8%	59.1	14.79–106.26%	exhibit antimicrobial potential		very good		100	weak stimulating effect	weak stimulating effect					
Cc1ccc(F)cc1NN=Cc1coc2ccccc2c1=O [Compound 7, 3-[(5-Fluoro-2-methylphenyl)-hydrazonomethyl]-chromen-4-one]			954	44.89–96.11%	953	42.43–101.05%	exhibit antimicrobial potential						slightly stimulated	100				
O=c1c(C=NNc2c(F)cc(F)cc2F)coc2ccccc12 [Compound 8, 3-[(2,4,6-Trifluorophenyl)-hydrazonomethyl]-chromen-4-one]			98.5	38.11–64.40%	18.1	23.31–63.94%	not able to inhibit microbial growth		very good									
O=c1c(C=NNc2c(F)c(F)cc(F)c2F)coc2ccccc12 [Compound 6, 3-[(2,3,5,6-Tetrafluorophenyl)-hydrazonomethyl]-chromen-4-one]			728	40.05–93.11%	578	24.47–97.86%	not able to inhibit microbial growth											
N.N.[Cl][Pt][Cl] [Cisplatin, reference compound]			74.4	8.49–55.70%	67.4	8.71–75.14%												
O=c1c(C=NNc2ccccc2C(F)(F)F)coc2ccccc12 [Compound 10, 3-[(2-Trifluoromethylphenyl)-hydrazonomethyl]-chromen-4-one]			1210	48.62–73.47%	645	31.21–94.69%	exhibit antimicrobial potential							100				
O=c1c(C=NNc2cc(C(F)(F)F)cc(C(F)(F)F)c2)coc2ccccc12 [Compound 4, 3-[(3,5-Bis-trifluoromethylphenyl)-hydrazonomethyl]-chromen-4-one]			1030	45.61–101.31%	534	28.46–102.18%	exhibit antimicrobial potential					weak stimulating effect	weak stimulating effect	100				
Complex of 4-Fluorobenzoic acid [1-(4-oxo-4H-chromen-3-yl)-meth-(E)-ylidene]-hydrazide with Cu (II) [Compound 11]			35	10.30–75.02%		8.58–53.23%	exhibit antimicrobial potential		very good					100	100	200	46.89	77.78
O=c1c(C=NNc2ccc(C(F)(F)F)cc2)coc2ccccc12 [Compound 3, 3-[(4-Trifluoromethylphenyl)-hydrazonomethyl]-chromen-4-one]				55.91–96.98%	975	37.40–101.33%	not able to inhibit microbial growth		very good				slightly stimulated					
